# Laboratory results published in ChEMBL document CHEMBL1201862, “PubChem BioAssay data set” (2004).
# Activity calls are given as the source filed them.
# What was measured:
# [1] = target: T1, Endoribonuclease toxin MazF (Escherichia coli K-12, UniProt P0AE70); test: fluorescent RNA oligo signal without MazF, dose response, counter-screen for MazEF activator project, biochemical, fluorescence, single-stranded RNase substrate (AID 588502); assay type: functional
# T1 sequence (P0AE70 whole entry): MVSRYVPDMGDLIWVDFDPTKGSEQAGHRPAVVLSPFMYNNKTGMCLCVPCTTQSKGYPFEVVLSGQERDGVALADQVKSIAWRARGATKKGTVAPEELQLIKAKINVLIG
# [2] = target: T1, Endoribonuclease toxin MazF; test: MazF toxin RNase activators, dose response, biochemical, fluorescence, single-stranded RNA substrate, uHTS hits (AID 588481); assay type: functional
# [3] = target: T2, Corticotropin-releasing factor receptor 2/Corticotropin-releasing factor-binding protein (Homo sapiens, UniProt P24387+Q13324); test: activators of CRF receptor 2 with binding protein – uHTS hits, confirmation (AID 602473); assay type: functional; conditions: read-out: EC50_Mean
# T2 sequence (Q13324 whole entry): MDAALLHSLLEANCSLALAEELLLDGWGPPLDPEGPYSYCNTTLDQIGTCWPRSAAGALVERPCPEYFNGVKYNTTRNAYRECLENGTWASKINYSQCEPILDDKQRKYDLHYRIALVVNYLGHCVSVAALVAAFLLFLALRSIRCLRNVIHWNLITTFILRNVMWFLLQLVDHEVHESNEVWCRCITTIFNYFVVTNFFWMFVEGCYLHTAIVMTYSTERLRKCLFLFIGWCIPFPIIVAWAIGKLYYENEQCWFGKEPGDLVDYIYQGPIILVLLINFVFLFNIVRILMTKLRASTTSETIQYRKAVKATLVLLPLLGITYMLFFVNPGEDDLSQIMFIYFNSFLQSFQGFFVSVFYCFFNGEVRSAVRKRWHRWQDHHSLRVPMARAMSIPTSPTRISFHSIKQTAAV
# T2 sequence (P24387 whole entry): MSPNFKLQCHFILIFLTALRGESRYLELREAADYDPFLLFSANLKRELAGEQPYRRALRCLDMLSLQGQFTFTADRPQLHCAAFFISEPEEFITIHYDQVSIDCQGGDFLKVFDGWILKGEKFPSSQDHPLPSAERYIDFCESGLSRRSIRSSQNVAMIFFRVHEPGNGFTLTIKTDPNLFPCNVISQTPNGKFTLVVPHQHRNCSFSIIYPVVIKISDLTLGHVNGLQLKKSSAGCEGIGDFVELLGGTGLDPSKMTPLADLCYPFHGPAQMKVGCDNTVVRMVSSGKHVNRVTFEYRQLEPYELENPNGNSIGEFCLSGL
# [4] = target: T3, Zinc finger protein mex-5 (Caenorhabditis elegans, UniProt Q9XUB2); test: MEX-5/TCR-2 RNA interaction inhibitors, dose response, biochemical, C. elegans, fluorescence polarization (AID 1960)
# T3 sequence (Q9XUB2 whole entry): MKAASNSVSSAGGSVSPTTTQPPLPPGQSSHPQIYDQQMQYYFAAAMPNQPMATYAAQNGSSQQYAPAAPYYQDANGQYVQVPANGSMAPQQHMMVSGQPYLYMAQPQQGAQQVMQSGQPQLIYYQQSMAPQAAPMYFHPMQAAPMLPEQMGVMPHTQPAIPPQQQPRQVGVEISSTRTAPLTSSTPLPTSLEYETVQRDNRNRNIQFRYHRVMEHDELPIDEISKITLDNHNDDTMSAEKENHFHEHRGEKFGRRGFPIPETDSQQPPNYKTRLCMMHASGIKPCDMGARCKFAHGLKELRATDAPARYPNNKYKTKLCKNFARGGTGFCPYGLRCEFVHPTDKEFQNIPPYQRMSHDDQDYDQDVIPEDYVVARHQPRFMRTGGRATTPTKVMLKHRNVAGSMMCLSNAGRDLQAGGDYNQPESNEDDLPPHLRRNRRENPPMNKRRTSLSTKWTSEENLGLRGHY
# [5] = target: T4, RNA-binding protein pos-1 (Caenorhabditis elegans, UniProt G5EF15); test: inhibitors of POS-1/mex-3 RNA binding, dose response, biochemical, fluorescence polarization (AID 1964);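 also: purified POS-1 fused to maltose binding protein made in E. coli; potency of compounds blocking POS-1 binding to fluorescent RNA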
# T4 sequence (G5EF15 whole entry): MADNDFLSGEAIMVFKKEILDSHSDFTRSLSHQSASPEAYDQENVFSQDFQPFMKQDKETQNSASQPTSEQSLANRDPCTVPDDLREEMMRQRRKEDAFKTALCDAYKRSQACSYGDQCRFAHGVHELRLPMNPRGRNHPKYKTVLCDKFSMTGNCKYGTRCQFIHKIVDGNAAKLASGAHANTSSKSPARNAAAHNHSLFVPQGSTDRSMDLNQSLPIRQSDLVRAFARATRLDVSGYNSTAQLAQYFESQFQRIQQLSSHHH
# [6] = growth suppression of PTEN-null colon cells, dose response, cell-based, HCT116 PTEN knockout (AID 1047); assay type: functional;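 also: HCT116 colon tumor cells with PTEN knocked out; cells exposed to compound for 60 hours before readout; potency for loss of cell viability measured by luminescence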
# [7] = growth suppression of beta-catenin-knockout colon cells, dose response, cell-based, HCT116, human colon tumor (AID 1045); assay type: functional;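 also: HCT116 colon tumor cells with beta catenin knocked out; cells exposed to compound for 60 hours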
# [8] = target: Heat shock protein HSP 90-alpha (Homo sapiens, UniProt P07900); assay type: functional, organism-based
# INS1 = test: beta cell apoptosis inhibitors, cytokine rescue, dose response, luminescence, retest (AID 449756); assay type: functional, cell-based; conditions: Rattus norvegicus;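 also: cell death triggered by IL-1 beta plus TNF-alpha plus IFN-gamma mixture; protective hits raise ATP signal compared with cytokine alone wells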
# [9] = HepG2 cell cytotoxicity, dose response, cytotoxicity control for non-replicating M. tuberculosis project (AID 489018); assay type: functional; conditions: Mycobacterium tuberculosis
# Streptococcus = test: Group A Streptococcus viability loss, dose response, counter-screen for streptokinase expression inhibitor project, luminescence, BacTiterGlo (AID 1915); assay type: functional, organism-based;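 also: potency for reduction of bacterial viability or growth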
# Streptokinase A = target: T5, Streptokinase A (Streptococcus pyogenes serotype M1, UniProt P10520); test: S. pyogenes streptokinase expression inhibitors, potency, dose response, plasminogen activation absorbance, OD405 (AID 1914); assay type: functional, Streptococcus pyogenes M1 GAS;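 also: secreted streptokinase activity via plasminogen activation per viability signal from cell pellet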
# T5 sequence (P10520 whole entry): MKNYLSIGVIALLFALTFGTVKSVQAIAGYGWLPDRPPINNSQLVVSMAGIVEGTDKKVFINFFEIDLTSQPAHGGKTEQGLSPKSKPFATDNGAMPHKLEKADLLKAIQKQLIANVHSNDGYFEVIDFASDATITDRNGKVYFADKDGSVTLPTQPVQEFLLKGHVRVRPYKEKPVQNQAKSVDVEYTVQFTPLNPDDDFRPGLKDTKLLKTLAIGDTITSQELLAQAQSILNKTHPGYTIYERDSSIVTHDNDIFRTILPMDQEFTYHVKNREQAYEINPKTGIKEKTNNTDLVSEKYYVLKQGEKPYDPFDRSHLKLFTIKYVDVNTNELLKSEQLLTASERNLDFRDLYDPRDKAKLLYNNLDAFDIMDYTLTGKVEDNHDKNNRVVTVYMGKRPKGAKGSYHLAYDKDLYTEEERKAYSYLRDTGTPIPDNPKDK
# [10] = THP-1 cell cytotoxicity, dose response, cytotoxicity control for non-replicating M. tuberculosis project (AID 489025); assay type: functional
# cells = assay type: functional
# [11] = system: Streptococcus sp. 'group A'; test: growth inhibition of control SK(-) GAS strain, dose response, counter-screen for streptokinase expression inhibitor project, luminescence, kanamycin, BacTiterGlo, confirmation (AID 1900); assay type: functional, organism-based
# [12] = Vero E6 cell cytotoxicity, dose response, cytotoxicity control for non-replicating M. tuberculosis project, secondary assay (AID 492998); assay type: functional, VeroE6; conditions: Vero C1008
# Cytochrome P450 2C9 = Cytochrome P450 2C9 (Homo sapiens, UniProt P11712)
# Cytochrome P450 2C19 = Cytochrome P450 2C19 (Homo sapiens, UniProt P33261); test: Cytochrome panel assay with activity outcomes. Panel member name: p450-cyp2c19 Compounds with AC50 equal or less than 10 uM are considered active; assay type: functional; conditions: read-out: AC50
# Sequence of Cytochrome P450 2C19 (P33261 whole entry): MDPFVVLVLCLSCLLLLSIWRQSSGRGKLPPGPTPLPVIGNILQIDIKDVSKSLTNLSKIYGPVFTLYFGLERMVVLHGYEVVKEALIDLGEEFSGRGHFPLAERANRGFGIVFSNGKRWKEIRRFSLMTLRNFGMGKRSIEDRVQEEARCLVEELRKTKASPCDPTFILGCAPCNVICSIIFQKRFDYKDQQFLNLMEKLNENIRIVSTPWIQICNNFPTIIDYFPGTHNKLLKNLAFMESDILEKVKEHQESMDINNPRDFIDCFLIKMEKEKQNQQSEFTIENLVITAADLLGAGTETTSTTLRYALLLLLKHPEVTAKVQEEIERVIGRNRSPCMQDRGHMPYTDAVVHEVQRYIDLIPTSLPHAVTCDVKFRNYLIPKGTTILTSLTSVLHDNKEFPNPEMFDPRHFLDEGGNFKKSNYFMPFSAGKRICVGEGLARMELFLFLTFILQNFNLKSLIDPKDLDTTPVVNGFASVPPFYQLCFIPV
# Sequence of Cytochrome P450 2C9 (P11712 whole entry): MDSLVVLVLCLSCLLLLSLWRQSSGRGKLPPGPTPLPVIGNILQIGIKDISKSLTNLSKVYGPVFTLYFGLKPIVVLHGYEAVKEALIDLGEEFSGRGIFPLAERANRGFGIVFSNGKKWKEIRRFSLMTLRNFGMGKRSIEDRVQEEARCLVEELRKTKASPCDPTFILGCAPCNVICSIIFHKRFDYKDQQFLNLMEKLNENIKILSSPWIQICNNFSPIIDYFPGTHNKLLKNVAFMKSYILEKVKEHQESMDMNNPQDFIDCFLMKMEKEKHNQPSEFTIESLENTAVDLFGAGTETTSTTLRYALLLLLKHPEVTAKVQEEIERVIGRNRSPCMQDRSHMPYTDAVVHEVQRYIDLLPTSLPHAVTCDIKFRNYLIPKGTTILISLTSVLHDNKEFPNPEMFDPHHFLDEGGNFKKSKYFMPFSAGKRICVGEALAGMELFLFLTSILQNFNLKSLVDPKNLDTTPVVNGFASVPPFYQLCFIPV
structure (smiles),measurement,setting,value
COc1ccc(/C=C/c2cc(=O)c3cc(Cl)ccc3o2)cc1,EC50,[1],38 µM (inactive)
same,EC50,[2],> 99 µM (inactive)
O=[N+]([O-])c1ccc(NN=Cc2ccc3c(c2)OCO3)nc1,EC50,[1],> 99 µM (inactive)
same,EC50,[2],40.5 µM (inactive)
COC(=O)Cn1cc(/C=C2\C(=O)NC(=O)N(c3ccc(OC)cc3)C2=O)c2ccccc21,EC50,[3],5.57 µM (active)
same,EC50,[1],71.4 µM (inactive)
same,EC50,[4],6.99 µM (active)
same,EC50,[2],> 99 µM (inactive)
same,EC50,[5],69.1 µM (active)
Cn1c(SCC(=O)N/N=C/c2ccc([N+](=O)[O-])s2)nnc1-c1ccc(Cl)cc1,EC50,[6],4.91 µM (active)
same,EC50,[7],4.82 µM (active)
same,AC50,[8],2.55 µM (active)
same,AC50,INS1,9.33 µM (active)
CC(C)c1ccc2[nH]c3c(c2c1)CCC/C3=N\NC(=O)c1ccncc1,CC50,[9],> 20 µM (active)
same,EC50,Streptococcus,16.9 µM (active)
same,EC50,Streptokinase A,> 150 µM (not active)
same,CC50,[10],26 µM (active)
same,IC50,cells,2 µM (active)
same,EC50,[11],3.54 µM (active)
same,CC50,[12],11.6 µM (active)
CCc1c(O)oc2nnc(C)c-2c1C,AC50,Cytochrome P450 2C9,inconclusive
same,AC50,Cytochrome P450 2C19,11.2 µM (inconclusive)
CCOc1ccc(C(=O)Cc2cc(OC)c(OC)cc2[N+](=O)[O-])cc1,AC50,Cytochrome P450 2C9,inconclusive
same,AC50,Cytochrome P450 2C19,1.41 µM (inconclusive)
